Test results as given in patent US8017612B2, “Piperazine compound and use thereof as a HCV polymerase inhibitor” (priority 2006, dated 2011).
Counter-ions that a name gives are not always drawn.

What was measured:
[1] = biological target: T1, HCV polymerase (NS5B) type 1b (Hepatitis C virus genotype 1b, UniProt P26663); test: Assay of enzyme (HCV polymerase) inhibitory activity, type 1b enzyme; format: biochemical, HCV BK strain (type 1b)
T1 construct: a region encoding NS5B (J Virol 1991 March, 65(3), 1105-13, 544 amino acids after deletion of 47 amino acids on the C-terminal); 6xHis (C); made in house; host or cells: Escherichia coli
Summary of the method: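 Polymerase activity was followed as radiolabelled UTP incorporation by E. coli-expressed, His-tagged NS5B of HCV type 1b lacking its last 47 residues. Conditions: 2 μM UTP, 50 μM other NTPs, Mg2+ buffer at pH 7.5, 25 °C for 60 min. Inhibition relative to compound-free reactions gave IC50.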

[2] = biological target: T2, HCV polymerase (NS5B) type 1a (Hepatitis C virus genotype 1a, UniProt P26664); test: Assay of enzyme (HCV polymerase) inhibitory activity, type 1a enzyme; format: biochemical, HCV type 1a (cloned from the blood of patients)
T2 construct: made in house; host or cells: Escherichia coli (by the 'similar method' of the 1b enzyme)
Summary of the method: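 IC50 values derive from radioactivity of newly synthesized RNA with versus without test compound. The enzyme was C-terminally truncated type 1a NS5B, 1.5 μg/ml, run 60 min at 25° C with 3H-UTP-labelled nucleotides.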

[3] = HCV polymerase inhibitory activity (IC50), 1b, type 1b enzyme 0.5 μg/ml, 25° C., 60 min
[4] = HCV polymerase inhibitory activity (IC50), 1a, type 1a enzyme 1.5 μg/ml, 25° C., 60 min
[5] = HCV polymerase inhibitory activity IC50, 1b, type 1b enzyme
[6] = HCV polymerase inhibitory activity IC50, 1a, type 1a enzyme

| Structure (SMILES) | IC50 [1, 3] [nM] | IC50 [2, 4] [nM] | IC50 [1, 5] [nM] | IC50 [2, 6] [nM] |
| --- | --- | --- | --- | --- |
| Cc1cc(C2CC2)ccc1CNC(=O)[C@H]1CN(c2nc(C)c(C(=O)O)s2)CCN1S(=O)(=O)c1ccc(OC(F)(F)F)cc1 [Example 356, 2-[(R)-3-(4-cyclopropyl-2-methyl-benzylcarbamoyl)-4-(4-trifluoromethoxy-benzenesulfonyl)-piperazin-1-yl]-4-methyl-thiazole-5-carboxylic acid] | < 100 | < 100 | – | – |
| CCC(F)(F)c1ccc(CNC(=O)[C@H]2CN(c3cnc4cncnc4n3)CCN2S(=O)(=O)c2ccc(-c3ccccc3OCC(=O)O)cc2)cc1 [Example 731, (4′-{(R)-2-[4-(1,1-difluoro-propyl)-benzylcarbamoyl]-4-pteridin-7-yl-piperazine-1-sulfonyl}-biphenyl-2-yloxy)-acetic acid] | – | – | < 100 | < 100 |
| Cc1csc(N2CCN(S(=O)(=O)c3ccc(C(C)C)cc3)C(C(=O)NCc3ccc(C(F)(F)F)cc3)C2)n1 (stereo not shown) [Example 115, 1-(4-isopropyl-benzenesulfonyl)-4-(4-methyl-thiazol-2-yl)-piperazine-2-carboxylic acid 4-trifluoromethyl-benzylamide] | > 1000 | > 1000 | – | – |
| O=C(NCc1ccc(OC(F)F)cc1)[C@H]1CN(c2nc3nc(C(F)(F)F)ncc3s2)CCN1S(=O)(=O)c1ccc(OC(F)F)cc1 [Example 1005, (R)-1-(4-difluoromethoxy-benzenesulfonyl)-4-(5-trifluoromethyl-thiazolo[4,5-d]pyrimidin-2-yl)-piperazine-2-carboxylic acid 4-difluoromethoxy-benzylamide] | – | – | < 100 | < 100 |
| O=C(NCc1ccc(OC(F)(F)F)cc1)[C@H]1CN(c2nc3c(Cl)nncc3s2)CCN1S(=O)(=O)c1ccc(OC(F)(F)F)cc1 [Example 985, (R)-4-(4-chloro-thiazolo[4,5-d]pyridazin-2-yl)-1-(4-trifluoromethoxy-benzenesulfonyl)-piperazine-2-carboxylic acid 4-trifluoromethoxy-benzylamide] | – | – | < 100 | < 100 |
| CC(=O)N1CCN(S(=O)(=O)c2ccc(C(C)C)cc2)C(C(=O)NCc2ccccc2)C1 (stereo not shown) [Example 49, 4-acetyl-1-(4-isopropyl-benzenesulfonyl)-piperazine-2-carboxylic acid benzylamide] | > 1000 | > 1000 | – | – |
| CCCc1ccc(CNC(=O)[C@H]2CN(c3cc(C)n(CC(=O)O)n3)CCN2S(=O)(=O)c2ccc(OC(F)(F)F)cc2)cc1 [Example 1094, {5-methyl-3-[(R)-3-(4-propyl-benzylcarbamoyl)-4-(4-trifluoromethoxy-benzenesulfonyl)-piperazin-1-yl]-pyrazol-1-yl}-acetic acid] | – | – | 100 to 1000 | 100 to 1000 |
| CN(C)CC(=O)N1CCN(S(=O)(=O)c2ccc(I)cc2)C(C(=O)NCc2ccc(N(C)C)cc2)C1 (stereo not shown) [Example 95, 4-(2-dimethylamino-acetyl)-1-(4-iodo-benzenesulfonyl)-piperazine-2-carboxylic acid 4-dimethylamino-benzylamide] | > 1000 | > 1000 | – | – |
| CCCc1ccc(CNC(=O)[C@H]2CN(c3cnc(NS(C)(=O)=O)cn3)CCN2S(=O)(=O)c2ccc(OC(F)(F)F)cc2)cc1 [Example 544, (R)-5′-methanesulfonylamino-4-(4-trifluoromethoxy-benzenesulfonyl)-3,4,5,6-tetrahydro-2H-[1,2′]bipyrazinyl-3-carboxylic acid 4-propyl-benzylamide] | < 100 | < 100 | – | – |
| CC(=O)N1CCN(S(=O)(=O)c2ccc(C(C)C)cc2)[C@@H](C(=O)NCc2ccc(C(C)(C)C)cc2)C1 [Example 253, (R)-4-acetyl-1-(4-isopropyl-benzenesulfonyl)-piperazine-2-carboxylic acid 4-tert-butyl-benzylamide] | < 100 | < 100 | – | – |
| O=C(NCc1ccc(OC(F)(F)F)cc1)[C@H]1CN(c2nc3c(CO)n[nH]c(=O)c3s2)CCN1S(=O)(=O)c1ccc(OC(F)(F)F)cc1 [Example 870, (R)-4-(4-hydroxymethyl-7-oxo-6,7-dihydro-thiazolo[4,5-d]pyridazin-2-yl)-1-(4-trifluoromethoxy-benzenesulfonyl)-piperazine-2-carboxylic acid 4-trifluoromethoxy-benzylamide] | – | – | < 100 | < 100 |
| CCC(F)(F)c1ccc(CNC(=O)[C@H]2CN(C(=O)Nc3nn[nH]n3)CCN2S(=O)(=O)c2ccc(OC(F)(F)F)cc2)cc1 [Example 566, (R)-4-(4-trifluoromethoxy-benzenesulfonyl)-piperazine-1,3-dicarboxylic acid 3-[4-(1,1-difluoro-propyl)-benzylamide] 1-[(2H-tetrazol-5-yl)-amide]] | < 100 | 100 to 1000 | – | – |
| O=C(NCc1ccc(OC(F)(F)F)cc1)[C@H]1CN(c2nc3nc(Br)ncc3s2)CCN1S(=O)(=O)c1ccc(OC(F)(F)F)cc1 [Example 912, (R)-4-(5-bromo-thiazolo[4,5-d]pyrimidin-2-yl)-1-(4-trifluoromethoxy-benzenesulfonyl)-piperazine-2-carboxylic acid 4-trifluoromethoxy-benzylamide] | – | – | < 100 | < 100 |
| CC(=O)N1CCN(S(=O)(=O)c2ccc(C(C)C)cc2)[C@@H](C(=O)NCCc2cccc(Cl)c2)C1 [Example 150, (R)-4-acetyl-1-(4-isopropyl-benzenesulfonyl)-piperazine-2-carboxylic acid [2-(3-chloro-phenyl)-ethyl]-amide] | > 1000 | > 1000 | – | – |
| CCC(F)(F)c1ccc(CNC(=O)[C@H]2CN(c3cnc4cncnc4n3)CCN2S(=O)(=O)c2ccc(-c3cccs3)cc2)cc1 [Example 709, (R)-4-pteridin-7-yl-1-(4-thiophen-2-yl-benzenesulfonyl)-piperazine-2-carboxylic acid 4-(1,1-difluoro-propyl)-benzylamide] | – | – | < 100 | < 100 |
| CC(=O)N1CCN(S(=O)(=O)c2ccc(C(C)C)cc2)[C@@H](C(=O)NCc2ccc(C3(CO)CC3)cc2)C1 [Example 234, (R)-4-acetyl-1-(4-isopropyl-benzenesulfonyl)-piperazine-2-carboxylic acid 4-(1-hydroxymethyl-cyclopropyl)-benzylamide] | > 1000 | > 1000 | – | – |
| Cc1nnc2sc(N3CCN(S(=O)(=O)c4ccc(OC(F)(F)F)cc4)[C@@H](C(=O)NCc4ccc(OC(F)(F)F)cc4)C3)nn12 [Example 933, (R)-4-(3-methyl-[1,2,4]triazolo[3,4-b][1,3,4]thiadiazol-6-yl)-1-(4-trifluoromethoxy-benzenesulfonyl)-piperazine-2-carboxylic acid 4-trifluoromethoxy-benzylamide] | – | – | < 100 | < 100 |
| O=C(NCc1ccc(OC(F)(F)F)cc1)[C@H]1CN(c2nc3nnncc3s2)CCN1S(=O)(=O)c1ccc(C(F)(F)F)cc1 [Example 1006, (R)-4-thiazolo[4,5-d][1,2,3]triazin-6-yl-1-(4-trifluoromethyl-benzenesulfonyl)-piperazine-2-carboxylic acid 4-trifluoromethoxy-benzylamide] | – | – | < 100 | < 100 |
| COc1ccc(CNC(=O)C2CN(C(C)=O)CCN2S(=O)(=O)c2ccc(C(C)C)cc2)cc1OC (stereo not shown) [Example 198, 4-acetyl-1-(4-isopropyl-benzenesulfonyl)-piperazine-2-carboxylic acid 3,4-dimethoxy-benzylamide] | > 1000 | > 1000 | – | – |
| O=C(NCc1ccc(OC(F)F)cc1)[C@H]1CN(c2nc3nc(C(F)(F)F)ncc3s2)CCN1S(=O)(=O)c1ccc(C(F)(F)F)cc1 [Example 1001, (R)-1-(4-trifluoromethyl-benzenesulfonyl)-4-(5-trifluoromethyl-thiazolo[4,5-d]pyrimidin-2-yl)-piperazine-2-carboxylic acid 4-difluoromethoxy-benzylamide] | – | – | < 100 | < 100 |
| O=C(NCc1ccc(OC(F)(F)F)cc1)[C@H]1CN(c2cnc3cccnc3n2)CCN1S(=O)(=O)c1ccc(OC(F)(F)F)cc1 [Example 770, (R)-4-pyrido[2,3-b]pyrazin-3-yl-1-(4-trifluoromethoxy-benzenesulfonyl)-piperazine-2-carboxylic acid 4-trifluoromethoxy-benzylamide] | – | – | < 100 | < 100 |
| COC(=O)c1cc(=O)nc2sc(N3CCN(S(=O)(=O)c4ccc(OC(F)(F)F)cc4)[C@@H](C(=O)NCc4ccc(OC(F)(F)F)cc4)C3)nn12 [Example 948, 7-oxo-2-[(R)-4-(4-trifluoromethoxy-benzenesulfonyl)-3-(4-trifluoromethoxy-benzylcarbamoyl)-piperazin-1-yl]-7H-[1,3,4]thiadiazolo[3,2-a]pyrimidine-5-carboxylic acid methyl ester] | – | – | < 100 | < 100 |
| CC(C)c1ccc(CNC(=O)[C@H]2CN(C(=O)CCN)CCN2S(=O)(=O)c2ccc(C(F)(F)F)cc2)cc1 [Example 189, (R)-4-(3-amino-propionyl)-1-(4-trifluoromethyl-benzenesulfonyl)-piperazine-2-carboxylic acid 4-isopropyl-benzylamide hydrochloride] | > 1000 | > 1000 | – | – |
